target: T1, recombinant human Estrogen Receptor alpha ligand binding domain, residues 307-554 (ER alpha-LBD (GST)) (Homo sapiens, UniProt P03372); assay: ERα binding assay (LanthaScreen TR-FRET competition); settings: TR-FRET competition with Fluormone ES2 tracer, 4 hours at room temperature; single experiment or average of two or more
T1 construct: made in house
T1 sequence (P03372 307-554): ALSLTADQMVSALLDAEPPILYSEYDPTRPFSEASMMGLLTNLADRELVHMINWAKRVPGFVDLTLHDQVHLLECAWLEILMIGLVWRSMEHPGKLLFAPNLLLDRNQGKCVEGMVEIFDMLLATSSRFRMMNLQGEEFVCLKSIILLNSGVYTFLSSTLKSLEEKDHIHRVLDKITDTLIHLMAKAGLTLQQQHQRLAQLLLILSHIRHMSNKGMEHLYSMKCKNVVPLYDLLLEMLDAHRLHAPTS

Compound	IC50 [pM]
Cc1ncsc1-c1ccc(CNC(=O)[C@@H]2C[C@@H](O)CN2C(=O)[C@@H](NC(=O)COCCNC(=O)/C=C/c2cc(F)c([C@@H]3c4[nH]c5ccccc5c4C[C@@H](C)N3CC(C)(C)F)c(F)c2)C(C)(C)C)cc1 [Example 62, (2S,4R)-1-((S)-2-(2-(2-((E)-3-(3,5-difluoro-4-((1R,3R)-2-(2-fluoro-2-methylpropyl)-3-methyl-2,3,4,9-tetrahydro-1H-pyrido[3,4-b]indol-1-yl)phenyl)acrylamido)ethoxy)acetamido)-3,3-dimethylbutanoyl)-4-hydroxy-N-(4-(4-methylthiazol-5-yl)benzyl)pyrrolidine-2-carboxamide, Trifluoroacetic Acid]	500
Cc1ncsc1-c1ccc([C@H](C)NC(=O)[C@@H]2C[C@@H](O)CN2C(=O)[C@@H](NC(=O)COCCOCCOCCOc2cc(F)c([C@@H]3c4[nH]c5ccccc5c4C[C@@H](C)N3CC(C)(C)F)c(F)c2)C(C)(C)C)cc1 [Example 3, (2S,4R)-1-((S)-2-(tert-Butyl)-14-(3,5-difluoro-4-((1R,3R)-2-(2-fluoro-2-methylpropyl)-3-methyl-2,3,4,9-tetrahydro-1H-pyrido[3,4-b]indol-1-yl)phenoxy)-4-oxo-6,9,12-trioxa-3-azatetradecanoyl)-4-hydroxy-N—((S)-1-(4-(4-methylthiazol-5-yl)phenyl)ethyl)pyrrolidine-2-carboxamide]	800
Cc1ncsc1-c1ccc(CNC(=O)[C@@H]2C[C@@H](O)CN2C(=O)[C@@H](NC(=O)COCCOCCOCCOCCOCC(=O)Nc2ccc([C@@H]3c4[nH]c5ccccc5c4C[C@@H](C)N3CC(C)(C)F)cc2)C(C)(C)C)cc1 [Example 56, N^1-(4-((1R,3R)-2-(2-fluoro-2-methylpropyl)-3-methyl-2,3,4,9-tetrahydro-1H-pyrido[3,4-b]indol-1-yl)phenyl)-N^17—((S)-1-((2S,4R)-4-hydroxy-2-((4-(4-methylthiazol-5-yl)benzyl)carbamoyl)pyrrolidin-1-yl)-3,3-dimethyl-1-oxobutan-2-yl)-3,6,9,12,15-pentaoxaheptadecanediamide, Trifluoroacetic Acid]	20000
Cc1ncsc1-c1ccc(CNC(=O)[C@@H]2C[C@@H](O)CN2C(=O)[C@@H](NC(=O)COCCO[C@H](C)[C@@H](C)OCCOc2cc(F)c([C@@H]3c4[nH]c5ccccc5c4C[C@@H](C)N3CC(C)(C)F)c(F)c2)C(C)(C)C)cc1 [Example 80, (2S,4R)-1-((2S,10R,11R)-2-(tert-butyl)-14-(3,5-difluoro-4-((1R,3R)-2-(2-fluoro-2-methylpropyl)-3-methyl-2,3,4,9-tetrahydro-1H-pyrido[3,4-b]indol-1-yl)phenoxy)-10,11-dimethyl-4-oxo-6,9,12-trioxa-3-azatetradecanoyl)-4-hydroxy-N-(4-(4-methylthiazol-5-yl)benzyl)pyrrolidine-2-carboxamide]	700
Cc1ncsc1-c1ccc(CNC(=O)[C@@H]2C[C@@H](O)CN2C(=O)[C@@H](NC(=O)COCCOCCOCCOc2cc(F)c([C@@H]3c4[nH]c5ccccc5c4C[C@@H](C)N3CC(F)(F)CO)c(F)c2)C(C)(C)C)cc1 [Example 71, (2S,4R)-1-((S)-2-(tert-Butyl)-14-(4-((1R,3R)-2-(2,2-difluoro-3-hydroxypropyl)-3-methyl-2,3,4,9-tetrahydro-1H-pyrido[3,4-b]indol-1-yl)-3,5-difluorophenoxy)-4-oxo-6,9,12-trioxa-3-azatetradecanoyl)-4-hydroxy-N-(4-(4-methylthiazol-5-yl)benzyl)pyrrolidine-2-carboxamide]	1300
Cc1ncsc1-c1ccc(CNC(=O)[C@@H]2C[C@@H](O)CN2C(=O)[C@@H](NC(=O)COCCCCOCCCOc2cc(F)c([C@@H]3c4[nH]c5ccccc5c4C[C@@H](C)N3CC(C)(C)F)c(F)c2)C(C)(C)C)cc1 [Example 93]	700
Cc1ncsc1-c1ccc(CNC(=O)[C@@H]2C[C@@H](O)CN2C(=O)[C@@H](NC(=O)COCCCCCOc2cc(F)c([C@@H]3c4[nH]c5ccccc5c4C[C@@H](C)N3CC(F)(F)F)c(F)c2)C(C)(C)C)cc1 [Example 96]	600
Cc1ncsc1-c1ccc(CNC(=O)[C@@H]2C[C@@H](O)CN2C(=O)[C@@H](NC(=O)COCCOCCOCCNC(=O)/C=C/c2cc(F)c([C@@H]3c4[nH]c5ccccc5c4C[C@@H](C)N3CC(C)(C)F)c(F)c2)C(C)(C)C)cc1 [Example 63, (2S,4R)-1-((S,E)-2-(tert-butyl)-18-(3,5-difluoro-4-((1R,3R)-2-(2-fluoro-2-methylpropyl)-3-methyl-2,3,4,9-tetrahydro-1H-pyrido[3,4-b]indol-1-yl)phenyl)-4,16-dioxo-6,9,12-trioxa-3,15-diazaoctadec-17-enoyl)-4-hydroxy-N-(4-(4-methylthiazol-5-yl)benzyl)pyrrolidine-2-carboxamide, Trifluoroacetic Acid]	1000
Cc1ncsc1-c1ccc(CNC(=O)[C@@H]2C[C@@H](O)CN2C(=O)[C@@H](NC(=O)COCCOCCOCCOCC(=O)Nc2ccc([C@@H]3c4[nH]c5ccccc5c4C[C@@H](C)N3CC(C)(C)F)cc2)C(C)(C)C)cc1 [Example 55, N^1-(4-((1R,3R)-2-(2-fluoro-2-methylpropyl)-3-methyl-2,3,4,9-tetrahydro-1H-pyrido[3,4-b]indol-1-yl)phenyl)-N^14—((S)-1-((2S,4R)-4-hydroxy-2-((4-(4-methylthiazol-5-yl)benzyl)carbamoyl)pyrrolidin-1-yl)-3,3-dimethyl-1-oxobutan-2-yl)-3,6,9,12-tetraoxatetradecanediamide, Trifluoroacetic Acid]	12000
Cc1ncsc1-c1ccc(CNC(=O)[C@@H]2C[C@@H](O)CN2C(=O)[C@@H](NC(=O)COCc2ccc(COc3cc(F)c([C@@H]4c5[nH]c6ccccc6c5C[C@@H](C)N4CC(C)(C)F)c(F)c3)cn2)C(C)(C)C)cc1 [Example 86, (2S,4R)-1-((S)-2-(2-((5-((3,5-Difluoro-4-((1R,3R)-2-(2-fluoro-2-methylpropyl)-3-methyl-2,3,4,9-tetrahydro-1H-pyrido[3,4-b]indol-1-yl)phenoxy)methyl)pyridin-2-yl)methoxy)acetamido)-3,3-dimethylbutanoyl)-4-hydroxy-N-(4-(4-methylthiazol-5-yl)benzyl)pyrrolidine-2-carboxamide]	700
Cc1ncsc1-c1ccc(CNC(=O)[C@@H]2C[C@@H](O)CN2C(=O)[C@@H](NC(=O)COCc2cccc(CCCOc3cc(F)c([C@@H]4c5[nH]c6ccccc6c5C[C@@H](C)N4CC(C)(C)F)c(F)c3)c2)C(C)(C)C)cc1 [Example 74, (2S,4R)-1-((S)-2-(2-((3-(3-(3,5-Difluoro-4-((1R,3R)-2-(2-fluoro-2-methylpropyl)-3-methyl-2,3,4,9-tetrahydro-1H-pyrido[3,4-b]indol-1-yl)phenoxy)propyl)benzyl)oxy)acetamido)-3,3-dimethylbutanoyl)-4-hydroxy-N-(4-(4-methylthiazol-5-yl)benzyl)pyrrolidine-2-carboxamide]	800

From US10519152B2, “Compounds and their use in treating cancer” (AstraZeneca AB, priority 2017, dated 2019)
